In this data set the test system is CCRIS mutagenicity, Ames/micronucleus/aberration tests. As to the kind of experiment: CCRIS mutagenicity studies.
Where [1] appears, read: Test System: AMES SALMONELLA TYPHIMURIUM, Strain/Indicator: TA98, Metabolic Activation: NONE, Method: PREINCUBATION
The mark [2] stands for this setting: Test System: AMES SALMONELLA TYPHIMURIUM, Strain/Indicator: TA100, Metabolic Activation: NONE, Method: PREINCUBATION
The mark [3] stands for this setting: Test System: AMES SALMONELLA TYPHIMURIUM, Strain/Indicator: TA98, Metabolic Activation: NONE, Method: STANDARD PLATE.

The source made the active and inactive calls. The rule behind the calls is not given here.

Take `c1ccc2cc(Nc3ccc(Nc4ccc5ccccc5c4)cc3)ccc2c1`: the mutagenic call is “active; positive (structural changes)” (End Point: IN VITRO CHROMOSOMAL ABERRATIONS, Test System: CHINESE HAMSTER LUNG CELLS (CHL), Metabolic Activation: NONE); “inactive; negative” (End Point: IN VITRO CHROMOSOMAL ABERRATIONS, Test System: CHINESE HAMSTER OVARY CELLS (CHO), Metabolic Activation: NONE); “inactive; negative” (End Point: IN VITRO CHROMOSOMAL ABERRATIONS, Test System: CHINESE HAMSTER OVARY CELLS (CHO), Metabolic Activation: RAT, LIVER, S-9, AROCLOR 1254); “active; positive (structural changes); weak response” (End Point: IN VITRO CHROMOSOMAL ABERRATIONS, Test System: CHL CELLS, Metabolic Activation: S-9); “active; positive (structural changes)” (End Point: IN VITRO CHROMOSOMAL ABERRATIONS, Test System: CHO CELLS, Metabolic Activation: S-9); “active; positive” (Test System: AMES SALMONELLA TYPHIMURIUM, Strain/Indicator: TA98, Metabolic Activation: HAMSTER, LIVER, S-9, AROCLOR 1254 (30%), Method: PREINCUBATION). In addition, the mutagenic call reads like this: under setting [1], “inactive; negative”; (Test System: AMES SALMONELLA TYPHIMURIUM, Strain/Indicator: TA98, Metabolic Activation: RAT LIVER S-9, PHENOBARBITAL AND BETA-NAPHTHOFLAVONE, Method: PREINCUBATION) “inactive; negative”; (Test System: AMES SALMONELLA TYPHIMURIUM, Strain/Indicator: TA98, Metabolic Activation: RAT, LIVER, S-9, AROCLOR 1254 (30%), Method: PREINCUBATION) “inactive; negative”; (Test System: AMES SALMONELLA TYPHIMURIUM, Strain/Indicator: TA100, Metabolic Activation: HAMSTER, LIVER, S-9, AROCLOR 1254 (30%), Method: PREINCUBATION) “inactive; negative”; under setting [2], “inactive; negative”; (Test System: AMES SALMONELLA TYPHIMURIUM, Strain/Indicator: TA100, Metabolic Activation: RAT LIVER S-9, PHENOBARBITAL AND BETA-NAPHTHOFLAVONE, Method: PREINCUBATION) “inactive; negative”. Moreover, the mutagenic call runs as follows: (Test System: AMES SALMONELLA TYPHIMURIUM, Strain/Indicator: TA100, Metabolic Activation: RAT, LIVER, S-9, AROCLOR 1254 (30%), Method: PREINCUBATION) “inactive; negative”; (Test System: AMES SALMONELLA TYPHIMURIUM, Strain/Indicator: TA1535, Metabolic Activation: NONE, Method: PREINCUBATION) “inactive; negative”; (Test System: AMES SALMONELLA TYPHIMURIUM, Strain/Indicator: TA1535, Metabolic Activation: RAT LIVER S-9, PHENOBARBITAL AND BETA-NAPHTHOFLAVONE, Method: PREINCUBATION) “inactive; negative”; (Test System: AMES SALMONELLA TYPHIMURIUM, Strain/Indicator: TA1537, Metabolic Activation: NONE, Method: PREINCUBATION) “inactive; negative”; (Test System: AMES SALMONELLA TYPHIMURIUM, Strain/Indicator: TA1537, Metabolic Activation: RAT LIVER S-9, PHENOBARBITAL AND BETA-NAPHTHOFLAVONE, Method: PREINCUBATION) “inactive; negative”; (Test System: AMES SALMONELLA TYPHIMURIUM, Strain/Indicator: TA1538, Metabolic Activation: NONE, Method: PREINCUBATION) “inactive; negative”. Besides, the mutagenic call (Test System: AMES SALMONELLA TYPHIMURIUM, Strain/Indicator: TA1538, Metabolic Activation: RAT LIVER S-9, PHENOBARBITAL AND BETA-NAPHTHOFLAVONE, Method: PREINCUBATION) is “inactive; negative”; the mutagenic call (Test System: E.COLI, Strain/Indicator: WP2UVRA, Metabolic Activation: NONE, Method: PREINCUBATION) is “inactive; negative”; the mutagenic call (Test System: E.COLI, Strain/Indicator: WP2UVRA, Metabolic Activation: RAT LIVER S-9, PHENOBARBITAL AND BETA-NAPHTHOFLAVONE, Method: PREINCUBATION) was “inactive; negative”.
As to `CC(C)NC(=O)/C=C/c1ccc([N+](=O)[O-])o1`, the mutagenic call reads like this: under setting [1], “active; positive”; (Test System: CHINESE HAMSTER V-79, Strain/Indicator: V-79/6-THIOGUANINE, Metabolic Activation: NONE, Method: STANDARD PLATE) “active; positive”.
With `C=C(Br)C(=O)O`, the mutagenic call runs as follows: under setting [2], “inactive; negative”; (Test System: AMES SALMONELLA TYPHIMURIUM, Strain/Indicator: TA100, Metabolic Activation: RAT, LIVER, MICROSOMES, Method: PREINCUBATION) “inactive; negative”.
`Oc1ccc2sc3ccccc3c2c1`: the mutagenic call (Test System: CHINESE HAMSTER OVARY, Strain/Indicator: CHO-K1-BH4 (HGPRT)/6-THIOGUANINE, Metabolic Activation: RAT, LIVER, S-9, AROCLOR (4%)) was “active; positive”.
As for `O=C(Cl)C(Cl)(Cl)Cl`, the mutagenic call (Test System: AMES SALMONELLA TYPHIMURIUM, Strain/Indicator: TA100, Metabolic Activation: NONE, Method: BAG VAPORIZATION) is “active; positive” and the mutagenic call (Test System: AMES SALMONELLA TYPHIMURIUM, Strain/Indicator: TA100, Metabolic Activation: RAT, LIVER, S-9, AROCLOR 1254, Method: BAG VAPORIZATION) was “active; positive”.
With `O=[N+]([O-])c1ccc2c(ccc3ccccc32)c1`, the mutagenic call runs as follows: (Test System: AMES SALMONELLA TYPHIMURIUM, Strain/Indicator: TA98(1,8-DNP6), Metabolic Activation: NONE, Method: STANDARD PLATE) “active; positive”; (Test System: AMES SALMONELLA TYPHIMURIUM, Strain/Indicator: TA98(NR), Metabolic Activation: NONE, Method: STANDARD PLATE) “active; positive”; under setting [1], “active; positive”; under setting [3], “active; positive”; (Test System: AMES SALMONELLA TYPHIMURIUM, Strain/Indicator: TA98, Metabolic Activation: RAT, LIVER, S-9, PCB (10%), Method: PREINCUBATION) “active; positive”; (Test System: AMES SALMONELLA TYPHIMURIUM, Strain/Indicator: TA7001, Metabolic Activation: NONE, Method: PREINCUBATION) “active; positive”. Besides, the mutagenic call was “active; positive” (Test System: AMES SALMONELLA TYPHIMURIUM, Strain/Indicator: TA7002, Metabolic Activation: NONE, Method: PREINCUBATION); “active; positive” (Test System: AMES SALMONELLA TYPHIMURIUM, Strain/Indicator: TA7003, Metabolic Activation: NONE, Method: PREINCUBATION); “active; positive” (Test System: AMES SALMONELLA TYPHIMURIUM, Strain/Indicator: TA7004, Metabolic Activation: NONE, Method: PREINCUBATION); “active; positive” (Test System: AMES SALMONELLA TYPHIMURIUM, Strain/Indicator: TA7005, Metabolic Activation: NONE, Method: PREINCUBATION); “active; positive” (Test System: AMES SALMONELLA TYPHIMURIUM, Strain/Indicator: TA7006, Metabolic Activation: NONE, Method: PREINCUBATION).
As for `[N-]=[N+]=N[C@@H](c1ccccc1)[C@H](O)CO`, where the note is “Test System: AMES SALMONELLA TYPHIMURIUM, Strain/Indicator: TA100, Metabolic Activation: RAT, LIVER, S-9, PCB, Method: PREINCUBATION”, the mutagenic call is “active; positive”.
As to `Cc1cc([N+](=O)[O-])c(C)c2c1[nH]c1ccc(O)cc12`, the mutagenic call is, setting by setting: under setting [3], “active; positive”; (Test System: AMES SALMONELLA TYPHIMURIUM, Strain/Indicator: TA98, Metabolic Activation: RAT LIVER S-9, AROCLOR 1254, Method: STANDARD PLATE) “inactive; negative”; (Test System: AMES SALMONELLA TYPHIMURIUM, Strain/Indicator: TA100, Metabolic Activation: NONE, Method: STANDARD PLATE) “inactive; negative”; (Test System: AMES SALMONELLA TYPHIMURIUM, Strain/Indicator: TA100, Metabolic Activation: RAT LIVER S-9, AROCLOR 1254, Method: STANDARD PLATE) “inactive; negative”; (Test System: AMES SALMONELLA TYPHIMURIUM, Strain/Indicator: TA1537, Metabolic Activation: NONE, Method: STANDARD PLATE) “active; positive”; (Test System: AMES SALMONELLA TYPHIMURIUM, Strain/Indicator: TA1537, Metabolic Activation: RAT LIVER S-9, AROCLOR 1254, Method: STANDARD PLATE) “active; positive”. Further, the mutagenic call is “active; positive” (Test System: AMES SALMONELLA TYPHIMURIUM, Strain/Indicator: TA1977, Metabolic Activation: NONE, Method: STANDARD PLATE) and “active; positive” (Test System: AMES SALMONELLA TYPHIMURIUM, Strain/Indicator: TA1977, Metabolic Activation: RAT LIVER S-9, AROCLOR 1254, Method: STANDARD PLATE).

The values above are taken from PubChem BioAssay AID1259407 (Chemical Carcinogenesis Research Information System (CCRIS), 2018).
